Experimental data reported in paper PMC12495443, “Developing inhibitors of the guanosine triphosphate hydrolysis accelerating activity of Regulator of G protein Signaling-14 [drawing 1]” (The Journal of Biological Chemistry, 2025).
Read-outs that look alike come from different tables or passages of the source.

What was measured:
[1] = molecular target: T1, human RGS14 RGS-box (wild-type) (Homo sapiens, UniProt O43566); experiment: Transcreener GDP RGScreen fluorescence polarization assay of RGS14 RGS-box GAP activity on Gαi1(DM); format: biochemical; conditions: for Ratio (RGS14 pIC50 / RGS12 pIC50): values > 1.0 reflect RGS14 selectivity
T1 construct: human RGS14 RGS-box (aa 46–195 of UniProt O43566); host or cells: E. coli
T1 sequence (O43566 46-195): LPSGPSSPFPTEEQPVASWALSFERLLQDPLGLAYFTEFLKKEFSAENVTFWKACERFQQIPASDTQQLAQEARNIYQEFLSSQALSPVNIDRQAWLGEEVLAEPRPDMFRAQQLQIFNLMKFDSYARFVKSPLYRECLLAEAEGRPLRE
Text: (§1) We previously described work with BellBrook Labs creating the Transcreener GDP RGScreen fluorescence polarization assay of steady-state GTP hydrolysis, leveraging a double point-mutant in the Gα enzyme to make GTP hydrolysis, rather than GDP (product) release, the rate-limiting step for multiple rounds of GTP conversion ([57], [59]). […] Titrating inputs of the double point-mutant (“DM”) Gαi1 and RGS-box recombinant proteins (Fig. S2, B and C) established a robust, medium-throughput assay for evaluating potential RGS14 and RGS12 inhibitors, with “assay quality” Z′ scores ([60]) above 0.76 for each target (Fig. S2D).
(§2) Reagents and protocols for the fluorescence anisotropy-based Transcreener GDP RGScreen assay using a rate-altered, double point-mutant, recombinant Gαi1 protein have been extensively described previously ([43], [44]); reactions were always performed so that total GTP converted over the time course was consistently less than 10% of reaction maximum input. Specific methods for its application in assessing RGS14 and RGS12 GAP activity are summarized as follows. Open-reading frames (ORFs) encoding wild-type versions of the human RGS14 RGS-box (aa 46–195 of UniProt O43566) and human RGS12 RGS-box (aa 695–843 of UniProt O14924) were each sub-cloned in-frame with an N-terminal hexahistidine (His6) expression tag in the plasmid pET30a, expressed in E. coli cultures, and then purified by nickel-nitriloacetate (Ni-NTA) and size-exclusion (Superdex 200) column chromatographies by GenScript using previously described methods ([35]). These recombinant His6-tag fusion proteins were stored at −80 °C in storage buffer (150 mM NaCl, 50 mM Tris-HCl pH 8.0, 10% glycerol) before thawing and use. Cysteine-less versions were similarly produced by ORF site-directed mutagenesis: for RGS14, codons for cysteine residues 47 and 130 (numbered as in PDB id 2JNU) were replaced with serine codons; for RGS12, codons for cysteines 4, 51, 78, and 134 (numbered in relation to PDB id 2EBZ) were replaced with serine codons. Use of Transcreener GDP-detection reagents to assess compound inhibition of Naegleria fowleri Gα7 protein GTPase activity ([83]) has previously been described ([84]).

[2] = molecular target: T2, human RGS12 RGS-box (wild-type) (Homo sapiens, UniProt O14924); experiment: Transcreener GDP RGScreen fluorescence polarization assay of RGS12 RGS-box GAP activity on Gαi1(DM); format: biochemical; conditions: for IC50 / RGS12 pIC50: wild-type RGS12 RGS-box GAP activity, Gαi1(DM); for IC50: read-out: RGS12 pIC50 (converted)
T2 construct: human RGS12 RGS-box (aa 695–843 of UniProt O14924); host or cells: E. coli
T2 sequence (O14924 695-843): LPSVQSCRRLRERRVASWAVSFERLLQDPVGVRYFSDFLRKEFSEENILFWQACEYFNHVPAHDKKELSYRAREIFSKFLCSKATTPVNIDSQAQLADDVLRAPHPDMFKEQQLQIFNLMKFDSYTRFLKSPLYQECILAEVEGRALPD
Text: as §1, §2

[3] = wild-type RGS14 RGS-box GAP activity, Gαi1(DM), Transcreener GDP RGScreen, read-out: RGS14 pIC50 (converted)
[4] = wild-type RGS14 RGS-box GAP activity, Gαi1(DM), Transcreener GDP RGScreen

SMILES | Ratio (RGS14 pIC50 / RGS12 pIC50) [1] | IC50 [1, 3] [µM] | IC50 [2] [µM] | further results
COC(=O)C1Sc2nnc(COc3ccc(OC)cc3)n2N=C1c1cccc(N2CCCC2=O)c1 (stereo not shown) [Z7976707565] | 1.14 | 27.5 | 100 | –
CC1Sc2nnc(Cc3ccc(Br)cc3)n2N=C1c1ccc(Cl)cc1 (stereo not shown) [Z55660592] | 0.93 | 21.4 | 10 | –
O=C(O)C[C@@H]1Sc2nnc(-c3ccco3)n2N=C1c1ccccc1 [Z90276389] | 1.00 | 79.4 | 83.2 | –
O=c1[nH]c(-c2ccc(C(F)(F)F)cc2)nn1-c1cc(Cl)ccc1O [BMS-192364, reference compound] | – | – | – | inhibition of RGS14 RGS-box GAP activity (in words) ([1]; Transcreener GDP RGScreen): inactive; inhibition of RGS12 RGS-box GAP activity (in words) [2]: inactive
O=C(O)CC1Sc2nnc(C3CCCO3)n2N=C1c1ccc(Cl)cc1 (stereo not shown) [Z90278051] | 1.07 | 56.2 | 107 | –
c1ccc2c(c1)OC[C@@H](c1nnc3n1N=C(c1ccc4c(c1)OCCO4)CS3)O2 [Z55660304] | 0.90 | 28.8 | 8.71 | –
O=C(O)CC1Sc2nnc(C3COc4ccccc4O3)n2N=C1c1cccs1 (stereo not shown) [Z90275816] | 1.08 | 20.4 | 44.7 | –
O=C(O)C[C@@H]1Sc2nnc(-c3ccco3)n2N=C1c1ccc(F)cc1 [Z90276391] | 0.96 | 93.3 | 61.7 | –
Cc1ccc(C2=Nn3c(nnc3C3CC3)SC2CC(=O)O)cc1 (stereo not shown) [Z90274594] | 0.85 | 275 | 66.1 | –
Fc1ccccc1OCc1nnc2n1N=C(c1ccc(Cl)cc1)CS2 [Z55660438] | 0.77 | 234 | 20.4 | –
COc1ccc(OCc2nnc3n2N=C(c2ccc(NC(C)=O)cc2)CS3)cc1 [Z55660046] | – | > 1000 | 155 | –
CCOc1ccccc1-c1nnc2n1N=C(c1ccc(NC(=O)C(C)C)cc1)[C@@H](C)S2 [Z90278674] | 0.92 | 102 | 44.7 | –
Cc1ccc(C2=Nn3c(COc4ccc(Cl)cc4)nnc3SC2CC(=O)O)cc1 (stereo not shown) [Z90276194] | 1.00 | – | – | RGS14 pIC50 [1, 4]: 4.21; RGS12 pIC50 [2]: 4.21
COc1ccc(OCc2nnc3n2N=C(c2cccc(N4CCCC4=O)c2)CS3)cc1 [Z667824974] | 0.87 | 646 | 224 | –
COC(=O)C1Sc2nnc(COc3ccc(F)cc3)n2N=C1c1cc2ccccc2o1 (stereo not shown) [Z8201263931] | 0.91 | 100 | 40.7 | –
Cc1ccc(C2=Nn3c(COc4ccc(Cl)cc4)nnc3SC2)c(C)c1 [Z55660524] | 0.82 | 170 | 26.9 | –
Cc1ccc(C2=Nn3c(COc4ccccc4)nnc3SC2)c(C)c1 [Z55659515] | – | 4.07 | 4.07 | –
O=C(O)CC1Sc2nnc(C3CC3)n2N=C1c1ccc(F)cc1 (stereo not shown) [Z90274599] | 0.92 | 91.2 | 41.7 | –
COc1ccc(Cc2nnc3n2N=C(c2ccccc2)C(C)S3)cc1OC (stereo not shown) [Z55660788] | 0.90 | – | – | RGS14 pIC50 [1, 4]: 4.03; RGS12 pIC50 [2]: 4.50
CCN(CC)S(=O)(=O)c1cccc(-c2nnc3n2N=C(c2ccc(C)cc2)C(CC(=O)O)S3)c1 (stereo not shown) [Z90274338] | 1.14 | 93.3 | 288 | –
COc1ccc(-c2nnc3n2N=C(c2ccc(NC(C)=O)cc2)[C@@H](C)S3)cc1OC [Z90277200] | 0.96 | 30.2 | 18.6 | –

SMILES | Ratio (RGS14 pIC50 / RGS12 pIC50) [1] | IC50 [1, 3] [µM] | IC50 [2] [µM] | further results
COc1ccc(Cc2nnc3n2N=C(c2ccc(C)c(C)c2)[C@@H](C)S3)cc1OC [Z55660805] | 0.91 | 75.9 | 29.5 | –
C1CC[C@H]2Sc3nnc([C@H]4CCCO4)n3N=C2C1 [Z90278035] | 0.93 | 61.7 | 30.2 | –
CSc1nnc2n1N=C(c1ccc(NC(=O)C(C)C)cc1)[C@H](C)S2 [Z90277842] | 0.94 | 107 | 61.7 | –
O=C(O)C[C@@H]1Sc2nnc(CCC3CCCCC3)n2N=C1c1ccccc1 [Z90277285] | 0.96 | 38 | 24 | –
CC(C)(C)c1ccc(C2=Nn3c(nnc3-c3ccco3)SC2)cc1 [Z55660110] | – | 56.2 | 53.7 | –
CCCc1ccc(C2=Nn3c(COc4ccccc4F)nnc3SC2)cc1 [Z55660462] | 0.96 | 16.6 | 10.5 | –
COc1cccc(C2=Nn3c(COc4ccc(Cl)cc4)nnc3SC2)c1 [Z55660496] | 0.85 | 191 | 42.7 | –
CC(C)c1nnc2n1N=C(c1cc3ccccc3o1)CS2 [Z55627782] | 0.82 | 191 | 27.5 | –
C[C@H]1Sc2nnc(Cc3ccc(Br)cc3)n2N=C1c1ccc(NS(C)(=O)=O)cc1 [Z90276813] | 0.85 | 72.4 | 13.5 | –
O=C(O)CC1Sc2nnc(Cc3ccc(Br)cc3)n2N=C1c1ccc(Cl)cc1 (stereo not shown) [Z90276771] | 0.91 | – | – | RGS14 pIC50 [1, 4]: 4.53; RGS12 pIC50 [2]: 4.96
COc1ccc(OCc2nnc3n2N=C(c2ccc(C)cc2)[C@@H](C)S3)cc1 [Z55660052] | 0.86 | 20.4 | 3.63 | –
CC(Sc1n[nH]c2nc3ccccc3n12)C(=O)c1c(F)cc(F)cc1F (stereo not shown) [Z1098346193, 2-(2,4,5,7-tetraaza-tricyclo[6.4.0.0²,⁶]dodeca-1(12),3,5,8,10-pentaen-3-ylsulfanyl)-1-(2,4,6-trifluorophenyl)propan-1-one] | – | ~200 | 63.1 | –
COc1cccc(OCc2nnc3n2N=C(c2ccccc2)[C@H](CC(=O)O)S3)c1 [Z90278437] | 1.00 | 170 | 174 | –
O=C(O)CC1Sc2nnc(C3CC3)n2N=C1c1ccccc1 (stereo not shown) [Z90274597] | 0.92 | 302 | 151 | –
COc1ccc(OCc2nnc3n2N=C(c2cc(C)n(-c4nccs4)c2C)CS3)cc1 [Z667824954] | 0.87 | 219 | 64.6 | –
FC(F)Oc1ccc(C2=Nn3c(COc4ccccc4)nnc3SC2)cc1 [Z56840012] | 0.90 | 36.3 | 11.5 | –
COCCn1c(SC(C)C(=O)c2ccc(Br)cc2)nc2ccccc21 (stereo not shown) [Z16216100] | – | > 1000 | – | –
O=C(O)C[C@@H]1Sc2nnc(COc3ccc(Cl)cc3)n2N=C1c1ccccc1 [Z90276197, 2-{3-[(4-chlorophenoxy)methyl]-6-phenyl-5H-[1,2,4]triazolo[3,4-b][1,3,4]thiadiazin-7-yl}acetic acid] | 0.94 | – | 42.7 | IC50 ([1]; wild-type RGS14 RGS-box, Transcreener GDP RGScreen, read-out: IC50 against RGS14 RGS-box GAP activity): 81 µM
CCc1ccc(C(=O)C(C)Sc2nc3ccc(OC)cc3[nH]2)cc1 (stereo not shown) [Z16077530] | – | > 1000 | – | –
Cc1ccc2[nH]c(SC(C)C(=O)c3ccc(F)cc3F)nc2c1 (stereo not shown) [Z167804418] | – | > 1000 | – | –
